EC50 data for 22 molecules are collected here from patent publication US9156796B2, “Benzoimidazole-carboxylic acid amide derivatives as APJ receptor modulators” (SANOFI, priority 2013, dated 2015).

The target in the assay is T1, human apelin receptor (Homo sapiens, UniProt P35414).
T1 construct: expressed in transfected cells
T1 sequence (P35414 1-380): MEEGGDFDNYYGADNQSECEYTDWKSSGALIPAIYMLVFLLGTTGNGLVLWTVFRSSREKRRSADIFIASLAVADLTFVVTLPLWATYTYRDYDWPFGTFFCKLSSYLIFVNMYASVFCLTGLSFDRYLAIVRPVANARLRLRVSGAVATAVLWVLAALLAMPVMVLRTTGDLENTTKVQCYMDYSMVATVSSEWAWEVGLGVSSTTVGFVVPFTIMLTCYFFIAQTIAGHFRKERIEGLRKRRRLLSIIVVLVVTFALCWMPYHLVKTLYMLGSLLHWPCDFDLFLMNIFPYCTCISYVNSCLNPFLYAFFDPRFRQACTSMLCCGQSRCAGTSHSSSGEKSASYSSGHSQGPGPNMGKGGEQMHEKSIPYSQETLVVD
Briefly: Determination of agonism on the human apelin receptor by a calcium fluorescence assay (FLIPR). In kind it is cell-based. Conditions: HEK293 cells stably transfected with human apelin receptor and Giaq protein, Fluo-4 calcium fluorescence, read-out: EC50 (APJ agonism). The method in brief:
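Agonist EC50s come from peak intracellular calcium transients recorded by FLIPR Tetra, scaled to the 1 μM apelin-13 maximum per plate. Test system: HEK293 stably transfected with human apelin receptor plus Giaq, Fluo-4-loaded (4 μM, 1 h, 37 °C, pH 7.4 buffer with probenecid); ≥7 concentrations, triplicates.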

On to `CCC(CC)n1c(Cc2cccs2)nc2cc(C(=O)N[C@@H](CC(C)C)C(=O)NCCCOCC3CC3)ccc21` [Example 391, 1-(1-Ethyl-propyl)-2-thiophen-2-ylmethyl-1H-benzoimidazole-5-carboxylic acid [(S)-1-(3-cyclopropylmethoxy-propylcarbamoyl)-3-methyl-butyl]-amide], for which the EC50 is 2.18 µM.
For the molecule `CCC(CC)n1c(Cc2cccs2)nc2cc(C(=O)N[C@@H](CC(C)C)C(=O)N(C)CCCC3CCCO3)ccc21` (stereo partly drawn) [Example 392, 1-(1-Ethyl-propyl)-2-thiophen-2-ylmethyl-1H-benzoimidazole-5-carboxylic acid ((S)-3-methyl-1-{methyl-[3-(tetrahydro-furan-2-yl)-propyl]-carbamoyl}-butyl)-amide], the EC50 is 1.38 µM.
Regarding `CCCC(CC(=O)O)NC(=O)c1ccc2c(c1)nc(Cc1cccs1)n2[C@@H]1CCCC[C@H]1C` (single isomer, unassigned) [Example 458], the EC50 worked out at 0.124 µM.
As for `CCC(CC)n1c(Cc2cccs2)nc2cc(C(=O)NC(CC3CCCCCC3)C(=O)O)ccc21` (single isomer, unassigned) [Example 448], the EC50 worked out at 0.706 µM.
For `CCC(CC)n1c(Cc2cccs2)nc2cc(C(=O)N[C@@H](CC3CCCCC3)C(N)=O)ccc21` [Example 173, 1-(1-Ethyl-propyl)-2-thiophen-2-ylmethyl-1H-benzoimidazole-5-carboxylic acid ((S)-1-carbamoyl-2-cyclohexyl-ethyl)-amide] the value was 6.7 µM; for `CCC(CC)n1c(Cc2cccs2)nc2cc(C(=O)N[C@@H](CC(C)C)C(=O)N(C)CCc3ccccc3)ccc21` [Example 264, 1-(1-Ethyl-propyl)-2-thiophen-2-ylmethyl-1H-benzoimidazole-5-carboxylic acid [(S)-3-methyl-1-(methyl-phenethyl-carbamoyl)-butyl]-amide], 3.34 µM; for `CCC(CC)n1c(Cc2ccsc2)nc2cc(C(=O)N[C@H](CC(=O)O)CC(C)C)ccc21` [Example 156, (S)-3-{[1-(1-Ethyl-propyl)-2-thiophen-3-ylmethyl-1H-benzoimidazole-5-carbonyl]-amino}-5-methyl-hexanoic acid], 0.21 µM.
In the case of `CCC[C@@H](CO)NC(=O)c1ccc2c(c1)nc(CC1CCCC1)n2C(CC)CC` [Example 186, 2-Cyclopentylmethyl-1-(1-ethyl-propyl)-1H-benzoimidazole-5-carboxylic acid ((S)-1-hydroxymethyl-butyl)-amide] it was 4.67 µM; in that of `C[C@@H]1CCCC[C@H]1n1c(Cc2cccs2)nc2cc(C(=O)NC(CC3CCCCCC3)C(=O)O)ccc21` (stereo partly drawn) [Example 40, 3-Cycloheptyl-2-{[1-((1R,2R)-2-methyl-cyclohexyl)-2-thiophen-2-ylmethyl-1H-benzoimidazole-5-carbonyl]-amino}-propionic acid], 0.915 µM.
For `CCC(CC)n1c(CC2CCCC2)nc2cc(C(=O)NC3(CO)CCCC3)ccc21` [Example 179, 2-Cyclopentylmethyl-1-(1-ethyl-propyl)-1H-benzoimidazole-5-carboxylic acid (1-hydroxymethyl-cyclopentyl)-amide], the EC50 amounted to 25.2 µM.
On to `CCC(CC)n1c(Cc2cccs2)nc2cc(C(=O)N[C@@H](CC(C)C)C(=O)N[C@H]3C[C@H]4CC[C@@H](C3)N4C)ccc21` [Example 276, 1-(1-Ethyl-propyl)-2-thiophen-2-ylmethyl-1H-benzoimidazole-5-carboxylic acid [(S)-3-methyl-1-((3R)-8-methyl-8-aza-bicyclo[3.2.1]oct-3-ylcarbamoyl)-butyl]-amide], for which the EC50 came out at 0.105 µM.
`CCC[C@H](CO)NC(=O)c1ccc2c(c1)nc(Cc1cccs1)n2C(CC)CC` [Example 200, 1-(1-Ethyl-propyl)-2-thiophen-2-ylmethyl-1H-benzoimidazole-5-carboxylic acid ((R)-1-hydroxymethyl-butyl)-amide]: the EC50 came out at 8.18 µM.
In the case of `CCC(CC)n1c(Cc2cccs2)nc2cc(C(=O)N[C@@H](CC(C)C)C(=O)NCCCN3CCN(Cc4c(F)cccc4Cl)CC3)ccc21` [Example 277, 1-(1-Ethyl-propyl)-2-thiophen-2-ylmethyl-1H-benzoimidazole-5-carboxylic acid ((S)-1-{3-[4-(2-chloro-6-fluoro-benzyl)-piperazin-1-yl]-propylcarbamoyl}-3-methyl-butyl)-amide] it was 2.1 µM; in that of `CCCC1CCN(CCCNC(=O)[C@H](CC(C)C)NC(=O)c2ccc3c(c2)nc(Cc2cccs2)n3C(CC)CC)CC1` [Example 354, 1-(1-Ethyl-propyl)-2-thiophen-2-ylmethyl-1H-benzoimidazole-5-carboxylic acid {(S)-3-methyl-1-[3-(4-propyl-piperidin-1-yl)-propylcarbamoyl]-butyl}-amide], 0.998 µM.
In the case of `CCC(CC)n1c(Cc2cccs2)nc2cc(C(=O)N[C@@H](CC(C)C)C(=O)N3CCN(Cc4ccccc4)CC3)ccc21` [Example 271, 1-(1-Ethyl-propyl)-2-thiophen-2-ylmethyl-1H-benzoimidazole-5-carboxylic acid [(S)-1-(4-benzyl-piperazine-1-carbonyl)-3-methyl-butyl]-amide], the EC50 was 3.26 µM.
`CCCC(CC(=O)O)NC(=O)c1ccc2c(c1)nc(Cc1cccs1)n2C(CC)CC` (stereo not shown) [Example 155, 3-{[1-(1-Ethyl-propyl)-2-thiophen-2-ylmethyl-1H-benzoimidazole-5-carbonyl]-amino}-hexanoic acid]: the EC50 was 0.5 µM.
Regarding `CCC(CC)n1c(Cc2cncs2)nc2cc(C(=O)N[C@H](CC(=O)O)CC(C)C)ccc21` [Example 50, (S)-3-{[1-(1-Ethyl-propyl)-2-thiazol-5-ylmethyl-1H-benzoimidazole-5-carbonyl]-amino}-5-methyl-hexanoic acid], the EC50 was 0.205 µM.
For `CCC(CC)n1c(Cc2cccs2)nc2cc(C(=O)N[C@H](CO)CCSC)ccc21` [Example 188, 1-(1-Ethyl-propyl)-2-thiophen-2-ylmethyl-1H-benzoimidazole-5-carboxylic acid ((S)-1-hydroxymethyl-3-methylsulfanyl-propyl)-amide] the value was 4.52 µM.
Turning to `CCC(CC)n1c(Cc2cccs2)nc2cc(C(=O)N[C@@H](CC(C)C)C(=O)NCCc3n[nH]c(=O)[nH]3)ccc21` [Example 406, 1-(1-Ethyl-propyl)-2-thiophen-2-ylmethyl-1H-benzoimidazole-5-carboxylic acid {(S)-3-methyl-1-[2-(5-oxo-4,5-dihydro-1H-[1,2,4]triazol-3-yl)-ethylcarbamoyl]-butyl}-amide], the EC50 amounted to 1.11 µM.
Regarding `CCC(CC)n1c(Cc2ccno2)nc2cc(C(=O)N[C@H](CC(=O)O)CC(C)C)ccc21` [Example 105, (S)-3-{[1-(1-Ethyl-propyl)-2-isoxazol-5-ylmethyl-1H-benzoimidazole-5-carbonyl]-amino}-5-methyl-hexanoic acid], the EC50 is 5.47 µM.
In the case of `CCC(CC)n1c(Cc2cccs2)nc2cc(C(=O)NC(CC(C)C)C(C)(C)C(=O)O)ccc21` (single isomer, unassigned) [Example 465] it was 0.948 µM.
With `CCCC[C@H](NC(=O)c1ccc2c(c1)nc(Cc1cccs1)n2C1CCCCC1C)C(=O)O` (single isomer, unassigned) [Example 421], the EC50 stood at 20 µM.
